{
  "source": "patent US11931485B2",
  "about": "“Implantable sustained release device and a method of use therefor in the treatment of brain disorders” (priority 2021, dated 2024)",
  "key": {"[1]": {"test_system": "trigeminal nerve ganglion function", "assay": "Intra-arterial lidocaine in the middle meningeal artery territory in patients with refractory trigeminal neuralgia (blink reflex monitoring, clinical outcome)", "assay_type": "in vivo", "text": "Trigeminal neuralgia consists of unilateral, brief/paroxysmal, or continuous pain in one or more divisions of the trigeminal nerve. The pain is secondary to hyperactivity or spontaneous impulse generation within the nerves due to extrinsic compression or intrinsic neural dysfunction. In the experiment, the intra-arterial delivery of medication for modulating trigeminal nerve ganglion function in patients with refractory trigeminal neuralgia was examined. […] Clinical outcome assessment included a 10-point numeric rating, 4-point severity grading, and the pain-free time interval pre- and post-treatment."}, "[2]": {"test_system": "patients suffering from severe headaches"}},
  "note": "Read-outs that look alike come from different tables or passages of the source.",
  "data": [
    {"smiles": "CCN(CC)CC(=O)Nc1c(C)cccc1C", "note": "[lidocaine]", "values": [
      {"measurement": "symptoms at follow-up", "setting": "[1]; all three patients, 1 month later", "value": "returned to baseline severity"},
      {"measurement": "facial hyperalgesia", "setting": "[1]; all three patients, all dermatomes", "value": "improvement in facial hyperalgesia"},
      {"measurement": "pain severity (10-point numeric rating, 4-point severity grading)", "setting": "[1]; second and third patients", "value": "improvement in pain severity on all scales"},
      {"measurement": "pain-free interval", "setting": "[1]; second patient", "value": 5, "unit": "days"},
      {"measurement": "pain-free interval", "setting": "[1]; third patient", "value": 3, "unit": "days"},
      {"measurement": "self-reported headache intensity (Visual Analog scale)", "setting": "[2]; first patient, after 5 min of lidocaine injection (40 mg), pre-procedure intensity 10", "value": 5},
      {"measurement": "self-reported headache intensity (Visual Analog scale)", "setting": "[2]; second patient, after 5 min of lidocaine injection, pre-procedure intensity 7", "value": 4}
    ]}
  ]
}
